Drawing on patent US7807701B2, “Dibenzylamine compounds and pharmaceutical use thereof” (Japan Tobacco Inc., priority 2002, dated 2010), this text covers IC50 for 19 compounds.

Where a name gives a salt, the structure may show the parent alone.

Broadly, the IC50 is the concentration that gives 50% inhibition. Low readings indicate greater potency, high ones weaker potency.

The target in this assay is T1, CETP (Homo sapiens, UniProt P11597).
T1 construct: The donor lipoprotein obtained above was added to plasma of healthy subject; from tissue; host or cells: whole plasma of healthy subject
T1 sequence (P11597 18-493): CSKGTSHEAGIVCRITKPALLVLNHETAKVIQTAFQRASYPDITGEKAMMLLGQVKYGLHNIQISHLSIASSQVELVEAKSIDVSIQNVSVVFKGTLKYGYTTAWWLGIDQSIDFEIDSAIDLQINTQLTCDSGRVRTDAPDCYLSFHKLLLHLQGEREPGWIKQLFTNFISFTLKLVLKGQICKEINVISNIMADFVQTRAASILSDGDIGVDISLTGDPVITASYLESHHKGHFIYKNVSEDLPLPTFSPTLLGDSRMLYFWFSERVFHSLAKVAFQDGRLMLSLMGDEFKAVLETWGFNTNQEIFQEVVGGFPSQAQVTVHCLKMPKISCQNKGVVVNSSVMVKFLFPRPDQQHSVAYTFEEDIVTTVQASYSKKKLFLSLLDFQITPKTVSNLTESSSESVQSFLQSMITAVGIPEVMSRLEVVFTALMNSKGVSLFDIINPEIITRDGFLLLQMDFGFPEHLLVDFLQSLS
As to the kind of experiment: Inhibitory effect in vitro on CETP activity in total plasma. It is filed as biochemical. As to conditions: plasma of healthy subject with [3H]CE-HDL3, 37° C., 4 hr; average values. The method, then:
Potassium bromide (KBr) was added to plasma (40 mL) of healthy subject and the mixture was adjusted to have a specific density d=1.125 g/mL. The mixture was subjected to density gradient centrifugation (227,000×g, 4° C., 17 hr) and a fraction showing a specific density of d>1.125 g/mL (HDL3 fraction) was harvested. The obtained fraction was dialyzed against PBS solution [10 mmol/L Na2HPO4; 10 mmol/L NaH2PO4; 0.15 mol/L NaCl; […] (pH 7.4)]. Then, tritium-labeled cholesterol (37 MBq) was dissolved in 95% ethanol, gradually added to the above-mentioned HDL3 fraction with stirring and incubated at 37° C. for 18 hr. [By this operation, tritium-labeled cholesterol was esterified by the action of lecithin acyl transferase (LCAT) present on the HDL3 surface and taken up into HDL3 as tritium-labeled cholesteryl ester ([^3H]CE)]. After incubation, KBr was added, the mixture was adjusted to have a specific density d=1.21 g/mL, subjected to density gradient centrifugation (227,000×g, 4° C., 17 hr) and a fraction of specific density […] was harvested. The obtained fraction was dialyzed against the aforementioned PBS solution to give HDL3 incorporating [^3H]CE ([^3H]CE-HDL3, specific density: 1.125<d<1.21, specific activity: 10,000 dpm/μL), which was used as a donor lipoprotein.
The donor lipoprotein obtained above was added to plasma of healthy subject to prepare a [^3H]CE-HDL3-containing plasma (1,000 dpm/μL). The compound was dissolved in dimethyl formamide. A solution of the compound or a solvent alone (2 μL) and the [^3H]CE-HDL3-containing plasma (100 μL) were added into a microtube, and this was incubated at 37° C. or 4° C. for 4 hr. After ice-cooling, TBS solution [100 μL, 20 mmol/L Tris; 0.15 mol/L NaCl (pH 7.4)] containing 1 mol/L magnesium chloride and 2% dextran sulfate was added to each microtube and the mixture was thoroughly stirred. After keeping at 4° C. for 30 min, the mixture was centrifuged (10,000×g, 4° C., 10 min), and the radioactivity in the obtained supernatant (HDL fraction) was measured with a scintillation counter. […] The concentration of the compound necessary for inhibiting the CETP activity by 50% was calculated as an IC50 value.

The compound `CCN(CC1CCCC1)c1cc2c(cc1CN(Cc1cc(C(F)(F)F)cc(C(F)(F)F)c1)c1nnn(C)n1)CCCC2` [Example 1, N-[3-(N′-cyclopentylmethyl-N′-ethylamino)-5,6,7,8-tetrahydronaphthalen-2-ylmethyl]-N-[3,5-bis(trifluoromethyl)benzyl]-(2-methyl-2H-tetrazol-5-yl)amine] displayed an IC50 of 230 nM.
In the case of `CCN(CC1CCCC1)c1cc2c(cc1CN(Cc1cc(C#N)cc(C(F)(F)F)c1)c1nnn(C)n1)CCCC2` [Example 2, 3-{[N-[3-(N′-cyclopentylmethyl-N′-ethylamino)-5,6,7,8-tetrahydronaphthalen-2-ylmethyl]-N-(2-methyl-2H-tetrazol-5-yl)amino]methyl}-5-trifluoromethylbenzonitrile], the IC50 was found to be 80 nM.
To `CCN(CC1CCCC1)c1cc2c(cc1CN(Cc1cc(C(F)(F)F)cc(C(F)(F)F)c1)c1nnn(C)n1)CCC2` [Example 3, N-[3,5-bis(trifluoromethyl)benzyl]-N-[6-(N′-cyclopentylmethyl-N′-ethylamino)indan-5-ylmethyl]-(2-methyl-2H-tetrazol-5-yl)amine] belongs 240 nM.
Then `CCN(CC1CCCC1)c1cc2c(cc1CN(Cc1cc(C(F)(F)F)cc(C(F)(F)F)c1)c1nnn(C)n1)CCC2` [Example 4, N-[3,5-bis(trifluoromethyl)benzyl]-N-[6-(N′-cyclopentylmethyl-N′-ethylamino)indan-5-ylmethyl]-(2-methyl-2H-tetrazol-5-yl)amine hydrochloride], with 180 nM; and `CCN(CC1CCCC1)c1cc2c(cc1CN(Cc1cc(C(F)(F)F)cc(C(F)(F)F)c1)c1cc(C)[nH]n1)CCC2` [Example 7, N-[6-(N′-cyclopentylmethyl-N′-ethylamino)indan-5-ylmethyl]-N-[3,5-bis(trifluoromethyl)benzyl]-(5-methyl-1H-pyrazol-3-yl)amine], with 270 nM; and `CCN(CCCCC(=O)O)c1cc2c(cc1CN(Cc1cc(C(F)(F)F)cc(C(F)(F)F)c1)c1noc(C)n1)CCC2` [Example 8, 5-{N-(6-{[N′-[3,5-bis(trifluoromethyl)benzyl]-N′-(5-methyl-[1,2,4]oxadiazol-3-yl)amino]methyl}indan-5-yl)-N-ethylamino}pentanoic acid hydrochloride], with 630 nM.
To `CCN(CC1CCCC1)c1cc2c(cc1CN(Cc1cc(C#N)cc(C(F)(F)F)c1)c1nnn(C)n1)CCC2` [Example 10, 3-{[N-[6-(N′-cyclopentylmethyl-N′-ethylamino)indan-5-ylmethyl]-N-(2-methyl-2H-tetrazol-5-yl)amino]methyl}-5-trifluoromethylbenzonitrile] belongs 230 nM.
`CCN(CC1CCCC1)c1cc2c(cc1CN(Cc1cc(C(F)(F)F)cc(C(F)(F)F)c1)c1nnn(CC)n1)CCC2` [Example 11, N-[3,5-bis(trifluoromethyl)benzyl]-N-[6-(N′-cyclopentylmethyl-N′-ethylamino)indan-5-ylmethyl]-(2-ethyl-2H-tetrazol-5-yl)amine] displayed an IC50 of 630 nM.
For `CCN(CC1CCCC1)c1cc2c(cc1CN(Cc1cc(C(F)(F)F)cc(C(F)(F)F)c1)c1ncn(C)n1)CCC2` [Example 12, N-[3,5-bis(trifluoromethyl)benzyl]-N-[6-(N′-cyclopentylmethyl-N′-ethylamino)indan-5-ylmethyl]-(1-methyl-1H-[1,2,4]triazol-3-yl)amine], it took 250 nM to reach half-maximal inhibition (IC50).
As to `CCN(CC1CCCC1)c1cc2c(cc1CN(Cc1cc(C#N)cc(C(F)(F)F)c1)c1ccccc1)CCC2` [Example 13, 3-({N-[6-(N′-cyclopentylmethyl-N′-ethylamino)indan-5-ylmethyl]-N-phenylamino}methyl)-5-trifluoromethylbenzonitrile], the IC50 was determined as 580 nM.
Then `CCN(CC1CCCC1)c1cc2c(cc1CN(Cc1cc(C(F)(F)F)cc(C(F)(F)F)c1)c1cc(C)no1)CCC2` [Example 26, N-[3,5-bis(trifluoromethyl)benzyl]-N-[6-(N′-cyclopentylmethyl-N′-ethylamino)indan-5-ylmethyl]-(3-methylisoxazol-5-yl)amine hydrochloride], with 470 nM; and `CCN(CC1CCCC1)c1cc2c(cc1CN(Cc1cc(C(F)(F)F)cc(C(F)(F)F)c1)c1ccn(C)n1)CCC2` [Example 27, N-[3,5-bis(trifluoromethyl)benzyl]-N-[6-(N′-cyclopentylmethyl-N′-ethylamino)indan-5-ylmethyl]-(1-methyl-1H-pyrazol-3-yl)amine hydrochloride], with 580 nM; and `CCN(CC1CCCC1)c1cc2c(cc1CN(Cc1cc(C(F)(F)F)cc(C(F)(F)F)c1)c1cnn(C)c1)CCC2` [Example 28, N-[3,5-bis(trifluoromethyl)benzyl]-N-[6-(N′-cyclopentylmethyl-N′-ethylamino)indan-5-ylmethyl]-(1-methyl-1H-pyrazol-4-yl)amine hydrochloride], with 440 nM.
The compound `CCN(CC1CCCC1)c1ccc(C(F)(F)F)cc1CN(Cc1cc(C(F)(F)F)cc(C(F)(F)F)c1)c1nnn(C)n1` [Example 33, N-[3,5-bis(trifluoromethyl)benzyl]-N-[2-(N′-cyclopentylmethyl-N′-ethylamino)-5-trifluoromethylbenzyl]-(2-methyl-2H-tetrazol-5-yl)amine hydrochloride] returned an IC50 of 560 nM.
Then `CCN(CC1CCCC1)c1ccc(C(F)(F)F)cc1CN(Cc1cc(C#N)cc(C(F)(F)F)c1)c1nnn(C)n1` [Example 34, 3-{[N-[2-(N′-cyclopentylmethyl-N′-ethylamino)-5-trifluoromethylbenzyl]-N-(2-methyl-2H-tetrazol-5-yl)amino]methyl}-5-trifluoromethylbenzonitrile hydrochloride], with 220 nM; and `CCN(CCCCC(=O)OC)c1cc2c(cc1CN(Cc1cc(C#N)cc(C(F)(F)F)c1)c1nnn(C)n1)CCC2.Cl` [Example 36, hydrochloride], with 340 nM; and `CCN(C[C@H]1CC[C@H](C(=O)OC)CC1)c1cc2c(cc1CN(Cc1cc(C(F)(F)F)cc(C(F)(F)F)c1)c1ccn(C)n1)CCCC2` [Example 42, methyl trans-4-{[N-(3-{[N′-[3,5-bis(trifluoromethyl)benzyl]-N′-(1-methyl-1H-pyrazol-3-yl)amino]methyl}-5,6,7,8-tetrahydronaphthalen-2-yl)-N-ethylamino]methyl}cyclohexanecarboxylate hydrochloride], with 700 nM.
To `CCN(C[C@H]1CC[C@H](C(=O)OC)CC1)c1cc2c(cc1CN(Cc1cc(C#N)cc(C(F)(F)F)c1)c1ccn(C)n1)CCCC2` [Example 43, methyl trans-4-{[N-(3-{[N′-(3-cyano-5-trifluoromethylbenzyl)-N′-(1-methyl-1H-pyrazol-3-yl)amino]methyl}-5,6,7,8-tetrahydronaphthalen-2-yl)-N-ethylamino]methyl}cyclohexanecarboxylate hydrochloride] belongs 550 nM; to `CCN(C[C@H]1CC[C@H](C(=O)O)CC1)c1cc2c(cc1CN(Cc1cc(C(F)(F)F)cc(C(F)(F)F)c1)c1ccn(C)n1)CCCC2` [Example 44, trans-4-{[N-(3-{[N′-[3,5-bis(trifluoromethyl)benzyl]-N′-(1-methyl-1H-pyrazol-3-yl)amino]methyl}-5,6,7,8-tetrahydronaphthalen-2-yl)-N-ethylamino]methyl}cyclohexanecarboxylic acid hydrochloride], 360 nM.
